Measured values reported in article PMC6016998 (2018).

Tested on: ochratoxin A aptamer, 0 complementary bp (no tail) (DNA, aptamer) GATCGGGTGTGGGTGGCGTAAAGGGAGCATCGGACA
Experiment: electrochemical aptamer-based sensor, square wave voltammetry (KDM)
Settings: 1X PBS pH 7.4, room temperature

SMILES | binding (tested at 10 µM only, no KDM signal) | KD (1X PBS (Na+, K+; concentrations not given), undiluted iced coffee rows (ions not given), flowing, KDM of 240 Hz and 20 Hz) [µM]
CCCC[C@@H](C)[C@@H](OC(=O)C[C@@H](CC(=O)O)C(=O)O)[C@H](C[C@@H](C)C[C@H](O)CCCC[C@@H](O)C[C@H](O)[C@H](C)N)OC(=O)C[C@@H](CC(=O)O)C(=O)O | no | –
C[C@@H]1Cc2c(Cl)cc(C(=O)N[C@@H](Cc3ccccc3)C(=O)O)c(O)c2C(=O)O1 | – | 6.5 ± 0.6
